Assay results: patent US20230013363A1, “COMPOSITION FOR ENHANCING REPROGRAMMING EFFICIENCY FROM SOMATIC CELL TO INDUCED PLURIPOTENT STEM CELL, COMPRISING MTOR ACTIVATOR, AND METHOD FOR ENHANCING REPROGRAMMING EFFICIENCY BY USING SAME” (KOREA UNIVERSITY RESEARCH AND BUSINESS FOUNDATION, priority 2019, published 2023)

Experiments:
[1] = tested on: primary umbilical vein endothelial cells (HUVEC); test: Reprogramming efficiency of OSKM-transduced somatic cells to iPSCs (HUVEC); type: cell-based, human
Text: (§1) In order to examine whether 4,6-di-4-morpholinyl-N-(4-nitrophenyl)-1,3,5-triazin-2-amine (MHY1485, CAS Number 326914-06-1), which is an mTOR (mammalian target of rapamycin) activator, has an influence on reprogramming efficiency, reprogramming factors (OCT4, SOX2, c-Myc, KLF4; OSKM) were transduced into primary umbilical vein endothelial cells (HUVEC, ATCC #PCS-100-010), primary human dermal fibroblasts (HDF, ATCC # PCS-201-012), and human placenta derived cells (HPC) via the Sendai virus (SeV) system as shown in FIG. 1a.
(§2) Twenty-four hours after transduction, the cells were cultured for one week in a placenta-derived cell conditioned medium (PCCM) or growth medium (GM). MHY1485 was added at a dose of 2 μg/mL once per 24 hours for three weeks. After one week of the culturing in a placenta-derived cell conditioned medium (PCCM) or growth medium (GM), the cells were induced to undergo reprogramming for two weeks in Matrigel-coated culture dishes containing mTeSR medium together with MHY1485 under a general pluripotent stem cell culturing condition.

[2] = tested on: LC3a/b in HUVEC, HDF, and HPC cells; test: Immunofluorescence assay of LC3a/b (autophagy) in somatic cells; type: cell-based, human; details: rapamycin as control
[3] = tested on: primary human dermal fibroblasts (HDF); test: Reprogramming efficiency of OSKM-transduced somatic cells to iPSCs (HDF); type: cell-based
Text: as §1, §2

[4] = tested on: CXCR2, mTOR, cMYC, LC3a/b, p62 in HUVEC, HDF, and HPC cells; test: Western blot of protein expression in somatic cells with or without MHY1485; type: cell-based, human
Text: as §1, §2
Western blotting identified the expression of CXCR2, mTOR, and cMYC. Autophagic flux activity was identified […].

[5] = tested on: human placenta derived cells (HPC); test: Reprogramming efficiency of OSKM-transduced somatic cells to iPSCs (HPC); type: cell-based
Text: as §1, §2

[6] = tested on: HUVEC, HDF, and HPC cells; test: Reprogramming efficiency, HUVEC, HDF and HPC taken together (total of 9 dishes); type: cell-based, human
Text: as §1, §2
HUVEC, HDF, and HPC cells were induced to undergo reprogramming by treatment with MHY1485 or in PCCM in three dishes for each cell line.

[7] = GM + MHY1485 (2 μg/mL once per 24 hours for three weeks)
[8] = treatment with MHY1485 vs no treatment

SMILES: O=[N+]([O-])c1ccc(Nc2nc(N3CCOCC3)nc(N3CCOCC3)n2)cc1 [MHY1485, 4,6-di-4-morpholinyl-N-(4-nitrophenyl)-1,3,5-triazin-2-amine]
- Reprogramming efficiency (%) [1, 7]: 0.13%
- Reprogramming efficiency (%) ([1]; hPCCM + MHY1485 (2 μg/mL)): 0.39%
- expression of LC3a/b (inhibition of autophagy) [2]: decreased
- Reprogramming efficiency (%) [3, 7]: 0.04%
- Reprogramming efficiency (%) ([3]; hPCCM + MHY1485 (2 μg/mL)): 0.07%
- expression level of p62 (indicates inactivation of autophagic flux) ([4]; treatment with MHY1485): increased
- expression of CXCR2 [4, 8]: increased
- expression of LC3a/b [4, 8]: decreased
- expression of cMYC [4, 8]: increased
- expression of mTOR [4, 8]: increased
- Reprogramming efficiency (%) [5, 7]: 0.35%
- Reprogramming efficiency (%) ([5]; hPCCM + MHY1485 (2 μg/mL)): 0.92%
- Reprogramming efficiency (%) ([6]; GM + MHY1485, HUVEC, HDF, HPC, three dishes each, total of 9 dishes): 0.17%
- effect of increasing reprogramming efficiency, compared to the employment of PCCM medium ([6]; MHY1485 treatment vs PCCM medium, FIG. 4 and Table 2): significantly higher
- reprogramming efficiency compared to untreated cells ([6]; all the cells (HUVEC, HDF, HPC), FIGS. 2a to 2c): increased
